In ChEMBL document CHEMBL5321207, “Design, synthesis and biological characterization of novel activators of the TrkB neurotrophin receptor” (Eur J Med Chem, 2023):
Calls of active or inactive are those of the source. No cut-off for these calls is given here.

Legend:
SH-SY5Y [1] = experiment: Induction of neurite outgrowth in retinoid acid-treated human SH-SY5Y cells at 1000 nM incubated for 2 days by fluorescence microscopy relative to retinoid acid; type: functional; details: time 2 day
Cortical neurone [2] = experiment: Neurotoxicity against Sprague-Dawley rat primary cortical neurons at 1 uM incubated for 24 hrs by HCS analysis; type: functional, cell-based
[3] = Chromatographic hydrophobicity index, log D of compound at pH 7.4 by HPLC analysis; type: physicochemical; details: buffer
SH-SY5Y [4] = experiment: Induction of neurite outgrowth in retinoid acid-treated human SH-SY5Y cells at 10 nM incubated for 2 days by fluorescence microscopy relative to retinoid acid; type: functional; details: time 2 day
[5] = Chromatographic hydrophobicity index of compound at pH 7.4 by HPLC analysis; type: physicochemical
[6] = molecular target: BDNF/NT-3 growth factors receptor (Mus musculus) (UniProt P15209); experiment: Induction of TrkB phosphorylation in mouse primary cortical astrocytes at 1 uM incubated for 20 mins followed by serum deprivation for 6 hrs by Western blot analysis; type: cell-based; details: Cortex, filed as activator, time 6.33 hrs
SH-SY5Y [7] = experiment: Induction of neurite outgrowth in retinoid acid-treated human SH-SY5Y cells at 100 nM incubated for 2 days by fluorescence microscopy relative to retinoid acid; type: functional; details: time 2 day
[8] = molecular target: BDNF/NT-3 growth factors receptor (Mus musculus) (UniProt P15209); experiment: Induction of TrkB phosphorylation in mouse primary cortical astrocytes assessed as Akt phosphorylation at 1 uM incubated for 20 mins followed by serum deprivation for 6 hrs by Western blot analysis; type: cell-based; details: Cortex, filed as activator, time 6.33 hrs
Hepatocyte = experiment: Hepatotoxicity against mouse hepatocytes at 1 uM incubated for 24 hrs by HCS analysis; type: functional, cell-based
Cortical neurone [9] = experiment: Neurotoxicity against Sprague-Dawley rat primary cortical neurons at 100 uM incubated for 24 hrs by HCS analysis; type: functional, cell-based
Cortical neurone [10] = experiment: Neurotoxicity against Sprague-Dawley rat primary cortical neurons at 10 uM incubated for 24 hrs by HCS analysis; type: functional, cell-based
[11] = molecular target: BDNF/NT-3 growth factors receptor (Mus musculus) (UniProt P15209); experiment: Induction of TrkB phosphorylation transfected in mouse NIH3T3 cells at 1 uM incubated for 20 mins followed by serum deprivation for 6 hrs by Western blot analysis; type: cell-based; details: filed as activator, time 6.33 hrs
NIH3T3 = experiment: Cytotoxicity against serum-starved mouse NIH3T3 cells transfected with TrkB assessed as cell death at 1 uM measured after 24 hrs by CellTox green dye/Hoechst staining based microscopy; type: toxicity; details: nih3t3, 24 h
[12] = test system: Primary spinal motor neuron; experiment: (§1) Neuroprotective activity against glutamate-treated Wistar rat primary spinal motor neurons assessed as neuronal survival pretreated for 1 hr followed by glutamate treatment for 20 mins and subsequent washout of compound and glutamate and re-treatment of compound for 48 hrs by imaging analysis; type: functional, cell-based; details: dose 0.5-1000 nM, time 49.33 hrs
[13] = test system: Primary spinal motor neuron; experiment: as §1, with “decrease in TDP43 accumulation” for “neuronal survival”; type: functional, cell-based; details: dose 0.5-1000 nM, time 49.33 hrs
[14] = test system: Primary spinal motor neuron; experiment: as §1, with “increase in neurite network” for “neuronal survival”; type: functional, cell-based; details: dose 0.5-1000 nM, time 49.33 hrs

Sequence of BDNF/NT-3 growth factors receptor (Mus musculus) (P15209 whole entry): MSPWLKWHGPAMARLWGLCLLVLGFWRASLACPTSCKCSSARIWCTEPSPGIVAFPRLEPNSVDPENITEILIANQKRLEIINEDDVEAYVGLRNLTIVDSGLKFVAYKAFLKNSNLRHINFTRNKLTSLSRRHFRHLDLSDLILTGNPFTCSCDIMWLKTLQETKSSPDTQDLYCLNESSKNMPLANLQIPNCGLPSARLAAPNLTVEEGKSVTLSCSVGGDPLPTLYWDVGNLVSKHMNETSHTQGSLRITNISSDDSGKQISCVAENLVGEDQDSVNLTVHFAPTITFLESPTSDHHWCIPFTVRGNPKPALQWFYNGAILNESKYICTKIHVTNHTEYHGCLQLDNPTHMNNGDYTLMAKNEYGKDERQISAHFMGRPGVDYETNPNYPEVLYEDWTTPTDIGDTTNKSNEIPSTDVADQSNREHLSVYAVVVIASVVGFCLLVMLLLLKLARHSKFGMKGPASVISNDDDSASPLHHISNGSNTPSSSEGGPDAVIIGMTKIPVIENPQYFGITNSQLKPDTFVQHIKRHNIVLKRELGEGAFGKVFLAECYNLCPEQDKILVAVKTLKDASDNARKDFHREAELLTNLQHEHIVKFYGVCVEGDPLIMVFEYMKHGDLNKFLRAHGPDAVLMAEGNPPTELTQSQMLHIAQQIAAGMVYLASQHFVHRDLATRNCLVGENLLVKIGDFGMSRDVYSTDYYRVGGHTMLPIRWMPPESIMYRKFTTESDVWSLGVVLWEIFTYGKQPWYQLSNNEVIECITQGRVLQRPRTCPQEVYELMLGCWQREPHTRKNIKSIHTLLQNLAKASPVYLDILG

| chromatographic logD [3] | CHI [5] | Activity [6] | Activity [8] | Activity [11] | Structure (SMILES) | Activity (SH-SY5Y [1]) [%] | Activity (Cortical neurone [2]) | Activity (SH-SY5Y [4]) [%] | Activity (SH-SY5Y [7]) [%] | Activity (Hepatocyte) | Activity (Cortical neurone [9]) | Activity (Cortical neurone [10]) | Activity (NIH3T3) | Activity [12] | Activity [13] | Activity [14] |
| --- | --- | --- | --- | --- | --- | --- | --- | --- | --- | --- | --- | --- | --- | --- | --- | --- |
| -0.31 | 18.1 | Active | Active |  | O=C(NCCO)c1cc(C(=O)NCCO)cc(C(=O)NCCN2CCOCC2)c1 | 114.91 | inactive | 90.19 | 107.68 | inactive |  |  |  |  |  |  |
| -0.28 | 18.7 |  |  |  | O=C(NCCO)c1cc(C(=O)NCCO)cc(C(=O)NCCCN2CCOCC2)c1 | 122.77 | inactive | 121.11 | 127.21 |  |  |  |  |  |  |  |
| -0.53 | 13.8 | Active | Active | Active | O=C(NCCO)c1cc(C(=O)NCCO)cc(C(=O)NCCO)c1 | 113.86 | inactive | 120.18 | 124.7 |  | inactive | inactive | Non-Toxic |  |  |  |
| 0.48 | 33.4 | Active | Active | Active | O=C(NCCO)c1cc(C(=O)NCCO)cc(C(=O)NCC2CCN(CC3CCCCC3)CC2)c1 | 113.54 |  | 183.59 | 181.13 |  |  |  | Non-Toxic | Dose-Dependent Effect | Dose-Dependent Effect | Dose-Dependent Effect |
| -0.34 | 17.6 |  |  | Active | CCCN1CCC(CNC(=O)c2cc(C(=O)NCCO)cc(C(=O)NCCO)c2)CC1 | 104.04 | inactive | 97.67 | 102.23 | inactive | inactive | inactive | Non-Toxic |  |  |  |
| -0.24 | 19.5 |  |  |  | CC[C@H](C)[C@H](N)C(=O)NCCNC(=O)c1cc(C(=O)NCCO)cc(C(=O)NCCO)c1.Cl | 143.82 | inactive | 139.04 | 158.93 |  |  | inactive |  |  |  |  |
